How the values were obtained:
HBV [1] = assay: Anti-HBV activity, HepG2.2.15 stable transfected cell line, HBV DNA from secreted virions by realtime PCR; assay type: cell-based; details: Hepatitis B virus, HepG2.2.15, 144 h, HepG2.2.15 cells, 6 days of treatment, HBV DNA from secreted virions; read-out: HepG2 2.15 EC50
[2] = Cytotoxicity in HepG2 cells, Resazurin viability assay; details: human, HepG2 cells, HepG2 4 days CC50 (μM), incubated for 4 days, Resazurin assay
HBV [3] = assay: Anti-HBV activity, HepG2.117 inducibly HBV producing cell line (Tet-off), intracellular HBV DNA by realtime PCR; assay type: cell-based; details: Hepatitis B virus, HepG2.117, 72 h, HepG2.117 cells, 3 days of treatment, intracellular HBV DNA; read-out: HepG2 117 EC50

In the case of `Cn1cc(S(=O)(=O)NC(C)(C)C)cc1C(=O)Nc1cc(F)c(F)c(Cl)c1` [Compound 58, 4-(tert-butylsulfamoyl)-N-(3-chloro-4,5-difluoro-phenyl)-1-methyl-pyrrole-2-carboxamide], the EC50 (HBV [1]) is reported as 90 nM, the CC50 at 4 days [2] is reported as over 25 µM and the EC50 (HBV [3]) is reported as 60 nM.

Work on `CC(C)NS(=O)(=O)c1cn(C)c(C(=O)Nc2ccc(F)c(F)c2F)c1F` [Compound 233, 3-Fluoro-1-methyl-4-[(1-methylethyl)sulfamoyl]-N-(2,3,4-trifluorophenyl)-1H-pyrrole-2-carboxamide] yielded an EC50 (HBV [1]) of 90 nM, a CC50 at 4 days [2] of over 25 µM and an EC50 (HBV [3]) of 160 nM.

For `CC[C@@H](NS(=O)(=O)c1cc(C(=O)Nc2ccc(F)c(C#N)c2)n(C)c1)C(F)(F)F` [Compound 240, N-(3-Cyano-4-fluorophenyl)-1-methyl-4-{[(1R)-1-(trifluoromethyl)-propyl]sulfamoyl}-1H-pyrrole-2-carboxamide], the EC50 (HBV [1]) was 20 nM, the CC50 at 4 days [2] was over 25 µM and the EC50 (HBV [3]) was 50 nM.

`Cn1cc(S(=O)(=O)NC(C)(C)C)cc1C(=O)Nc1ccc(F)c(F)c1` [Compound 19, 4-(tert-butylsulfamoyl)-N-(3,4-difluorophenyl)-1-methyl-pyrrole-2-carboxamide] showed an EC50 (HBV [1]) of 60 nM, a CC50 at 4 days [2] of over 25 µM and an EC50 (HBV [3]) of 80 nM.

Compound `C[C@@H](NS(=O)(=O)c1cc(C(=O)Nc2ccc(F)c(F)c2)n(C)c1)C(F)(F)F` [Compound 92, N-(3,4-Difluorophenyl)-1-methyl-4-{[(1R)-2,2,2-trifluoro-1-methylethyl]-sulfamoyl}-1H-pyrrole-2-carboxamide] has an EC50 (HBV [1]) of 40 nM, a CC50 at 4 days [2] of over 25 µM and an EC50 (HBV [3]) of 30 nM.

Compound `Cc1c(S(=O)(=O)NC2(C)COC2)cc(C(=O)Nc2cc(F)c(F)c(Cl)c2)n1C` [Compound 136, N-(3-Chloro-4,5-difluorophenyl)-1,5-dimethyl-4-[(3-methyloxetan-3-yl)sulfamoyl]-1H-pyrrole-2-carboxamide] has an EC50 (HBV [1]) of 60 nM, a CC50 at 4 days [2] of over 25 µM and an EC50 (HBV [3]) of 60 nM.

For `C[C@H](NS(=O)(=O)c1cc(C(=O)Nc2ccc(F)c(Br)c2F)n(C)c1)C(F)(F)F` [Compound 155, N-(3-Bromo-2,4-difluorophenyl)-1-methyl-4-{[(1S)-2,2,2-trifluoro-1-methylethyl]sulfamoyl}-1H-pyrrole-2-carboxamide], the EC50 (HBV [1]) was 30 nM, the CC50 at 4 days [2] was over 25 µM and the EC50 (HBV [3]) was 50 nM.

For `C[C@H](CO)NS(=O)(=O)c1cc(C(=O)Nc2ccc(F)c(F)c2)n(C)c1` [Compound 24, N-(3,4-difluorophenyl)-4-[[(1R)-2-hydroxy-1-methyl-ethyl]sulfamoyl]-1-methyl-pyrrole-2-carboxamide], the EC50 (HBV [1]) was 200 nM, the CC50 at 4 days [2] was over 25 µM and the EC50 (HBV [3]) was 300 nM.

`Cn1cc(S(=O)(=O)NC(C)(C)CF)cc1C(=O)Nc1ccc(F)c(C#N)c1` [Compound 249, N-(3-cyano-4-fluoro-phenyl)-4-[(2-fluoro-1,1-dimethyl-ethyl)sulfamoyl]-1-methyl-1H-pyrrole-2-carboxamide] gave an EC50 (HBV [1]) of 70 nM, a CC50 at 4 days [2] of 1.7 µM and an EC50 (HBV [3]) of 180 nM.

Work on `Cn1cc(S(=O)(=O)NC2(C(F)(F)F)CCC2)c(Cl)c1C(=O)Nc1ccc(F)c(F)c1` [Compound 267, 3-chloro-N-(3,4-difluorophenyl)-1-methyl-4-{[1-(trifluoromethyl)-cyclobutyl]sulfamoyl}-1H-pyrrole-2-carboxamide] yielded an EC50 (HBV [1]) of 6 nM, a CC50 at 4 days [2] of over 25 µM and an EC50 (HBV [3]) of 9 nM.

Compound `CC(C)NS(=O)(=O)c1cc(C(=O)Nc2ccc(F)c(Cl)c2)n(C)c1` [Compound 174, N-(3-Chloro-4-fluorophenyl)-1-methyl-4-[(1-methylethyl)sulfamoyl]-1H-pyrrole-2-carboxamide] has an EC50 (HBV [1]) of 80 nM, a CC50 at 4 days [2] of over 25 µM and an EC50 (HBV [3]) of 40 nM.

`CC(C)NS(=O)(=O)c1cn(C)c(C(=O)Nc2ccc(F)c(C#N)c2)c1C#N` [Compound 216, 3-Cyano-N-(3-cyano-4-fluorophenyl)-1-methyl-4-[(1-methylethyl)sulfamoyl]-1H-pyrrole-2-carboxamide] gave an EC50 (HBV [1]) of 180 nM, a CC50 at 4 days [2] of over 25 µM and an EC50 (HBV [3]) of 460 nM.

Compound `C[C@@H](NS(=O)(=O)c1cn(C)c(C(=O)Nc2ccc(F)c(C(F)F)c2)c1Cl)C(F)(F)F` [Compound 279, 3-chloro-N-[3-(difluoromethyl)-4-fluoro-phenyl]-1-methyl-4-[[(1R)-2,2,2-trifluoro-1-methyl-ethyl]sulfamoyl]pyrrole-2-carboxamide] has an EC50 (HBV [1]) of under 4 nM, a CC50 at 4 days [2] of over 25 µM and an EC50 (HBV [3]) of 5 nM.

Compound `Cn1cc(S(=O)(=O)NC2(C(F)(F)F)CC2)c(Cl)c1C(=O)Nc1ccc(F)c(C#N)c1` [Compound 271, 3-Chloro-N-(3-cyano-4-fluorophenyl)-1-methyl-4-{[1-(trifluoro-methyl)cyclopropyl]sulfamoyl}-1H-pyrrole-2-carboxamide] has an EC50 (HBV [1]) of 9 nM, a CC50 at 4 days [2] of over 25 µM and an EC50 (HBV [3]) of 20 nM.

For `Cn1cc(S(=O)(=O)NC2(C)COC2)c(F)c1C(=O)Nc1cc(F)c(F)c(Cl)c1` [Compound 111, N-(3-Chloro-4,5-difluorophenyl)-3-fluoro-1-methyl-4-[(3-methyloxetan-3-yl)sulfamoyl]-1H-pyrrole-2-carboxamide], the EC50 (HBV [1]) was 7 nM, the CC50 at 4 days [2] was over 25 µM and the EC50 (HBV [3]) was 7 nM.

Compound `Cc1cc(NC(=O)c2cc(S(=O)(=O)NC3(C)COC3)cn2C)ccc1Cl` [Compound 77, N-(4-Chloro-3-methylphenyl)-1-methyl-4-[(3-methyloxetan-3-yl)sulfamoyl]-1H-pyrrole-2-carboxamide] has an EC50 (HBV [1]) of 70 nM, a CC50 at 4 days [2] of over 25 µM and an EC50 (HBV [3]) of 180 nM.

Work on `Cn1cc(S(=O)(=O)NC2(C)COC2)c(F)c1C(=O)Nc1ccc(F)c(F)c1` [Compound 74, N-(3,4-difluorophenyl)-3-fluoro-1-methyl-4-[(3-methyloxetan-3-yl)-sulfamoyl]pyrrole-2-carboxamide] yielded an EC50 (HBV [1]) of 20 nM, a CC50 at 4 days [2] of over 25 µM and an EC50 (HBV [3]) of 20 nM.

Work on `Cn1cc(S(=O)(=O)NC2(C)COC2)cc1C(=O)Nc1cc(F)c(F)c(F)c1` [Compound 27, 1-methyl-4-[(3-methyloxetan-3-yl)sulfamoyl]-N-(3,4,5-trifluorophenyl)pyrrole-2-carboxamide] yielded an EC50 (HBV [1]) of 40 nM, a CC50 at 4 days [2] of over 25 µM and an EC50 (HBV [3]) of 60 nM.

`CC[C@H](NS(=O)(=O)c1cn(C)c(C(=O)Nc2ccc(F)c(C#N)c2)c1Cl)C(F)(F)F` [Compound 289, 3-chloro-N-(3-cyano-4-fluoro-phenyl)-1-methyl-4-[[(15)-1-(trifluoro-methyl)propyl]sulfamoyl]pyrrole-2-carboxamide] showed an EC50 (HBV [1]) of 40 nM, a CC50 at 4 days [2] of over 25 µM and an EC50 (HBV [3]) of 50 nM.

For `C[C@H](NS(=O)(=O)c1cc(C(=O)Nc2cccc(C#N)c2F)n(C)c1)C(F)(F)F` [Compound 198, N-(3-Cyano-2-fluorophenyl)-1-methyl-4-{[(1S)-2,2,2-trifluoro-1-methylethyl]sulfamoyl}-1H-pyrrole-2-carboxamide], the EC50 (HBV [1]) was 150 nM, the CC50 at 4 days [2] was over 25 µM and the EC50 (HBV [3]) was 80 nM.

Compound `Cn1cc(S(=O)(=O)NC2CCC(F)(F)C2)cc1C(=O)Nc1cc(F)c(F)c(Cl)c1` (racemic) [Compound 166, N-(3-Chloro-4,5-difluorophenyl)-4-[(3,3-difluorocyclopentyl)sulfamoyl]-1-methyl-1H-pyrrole-2-carboxamide] has an EC50 (HBV [1]) of 140 nM, a CC50 at 4 days [2] of over 25 µM and an EC50 (HBV [3]) of 120 nM.

For `Cc1c(S(=O)(=O)N[C@H](C)C(F)(F)F)cc(C(=O)Nc2ccc(F)c(Br)c2)n1C` [Compound 141, N-(3-Bromo-4-fluorophenyl)-1,5-dimethyl-4-{[(1R)-2,2,2-trifluoro-1-methylethyl]sulfamoyl}-1H-pyrrole-2-carboxamide], the EC50 (HBV [1]) was 40 nM, the CC50 at 4 days [2] was over 25 µM and the EC50 (HBV [3]) was 150 nM.

In the case of `C[C@H](NS(=O)(=O)c1cc(C(=O)Nc2ccc(F)c(F)c2)n(C)c1)C(F)(F)F` [Compound 93, N-(3,4-Difluorophenyl)-1-methyl-4-{[(1S)-2,2,2-trifluoro-1-methyl-ethyl]sulfamoyl}-1H-pyrrole-2-carboxamide], the EC50 (HBV [1]) is reported as 30 nM, the CC50 at 4 days [2] is reported as over 25 µM and the EC50 (HBV [3]) is reported as 30 nM.

Compound `Cc1c(F)ccc(NC(=O)c2cc(S(=O)(=O)NC3(C(F)(F)F)CC3)cn2C)c1F` [Compound 117, N-(2,4-Difluoro-3-methylphenyl)-1-methyl-4-{[1-(trifluoromethyl)-cyclopropyl]sulfamoyl}-1H-pyrrole-2-carboxamide] has an EC50 (HBV [1]) of 7 nM, a CC50 at 4 days [2] of over 25 µM and an EC50 (HBV [3]) of 10 nM.

With `Cn1cc(S(=O)(=O)NC2(C)COC2)cc1C(=O)Nc1ccc(F)c(C#N)c1` [Compound 50, N-(3-cyano-4-fluorophenyl)-1-methyl-4-[(3-methyloxetan-3-yl)sulfamoyl]-1H-pyrrole-2-carboxamide] the EC50 (HBV [1]) was 70 nM, the CC50 at 4 days [2] was over 25 µM and the EC50 (HBV [3]) was 50 nM.

Work on `Cn1cc(S(=O)(=O)NC2(C(N)=O)CC2)cc1C(=O)Nc1cc(F)c(F)c(Cl)c1` [Compound 114, 4-[(1-Carbamoylcyclopropyl)sulfamoyl]-N-(3-chloro-4,5-difluorophenyl)-1-methyl-1H-pyrrole-2-carboxamide] yielded an EC50 (HBV [1]) of 100 nM, a CC50 at 4 days [2] of over 25 µM and an EC50 (HBV [3]) of 50 nM.

`[2H]c1cc(F)c(C)c([2H])c1NC(=O)c1cc(S(=O)(=O)NC2(C)COC2)cn1C` [Compound 56, N-(2,6-dideuterio-4-fluoro-3-methyl-phenyl)-1-methyl-4-[(3-methyloxetan-3-yl)sulfamoyl]pyrrole-2-carboxamide] showed an EC50 (HBV [1]) of 20 nM, a CC50 at 4 days [2] of over 25 µM and an EC50 (HBV [3]) of under 20 nM.

Compound `Cn1cc(S(=O)(=O)NC2(C(F)(F)F)CCOCC2)cc1C(=O)Nc1ccc(F)c(C#N)c1` [Compound 247, N-(3-cyano-4-fluoro-phenyl)-1-methyl-4-{[4-(trifluoromethyl)tetrahydropyran-4-yl]sulfamoyl}-1H-pyrrole-2-carboxamide] has an EC50 (HBV [1]) of 30 nM, a CC50 at 4 days [2] of over 25 µM and an EC50 (HBV [3]) of 30 nM.
